What was measured:
[1] = tested on: HEC1A; test: MTT cytotoxicity, HEC1A; format: cell-based, human; settings: 48 h incubation, read-out: Cytotoxic effect, IC50
Procedure: (§1) Cytotoxicity was evaluated against fifteen adherent human cancer cell lines using the MTT test: colorectal adenocarcinoma cells Caco2 (ATCC® HTB-37™), colorectal adenocarcinoma cells HT29 (ATCC® HTB-38™), colon colorectal carcinoma HCT116 (ATCC® CCL-247™), colon adenocarcinoma COLO205 (ATCC® CCL-222™), colorectal adenocarcinoma SW620 (ATCC® CCL-227™), colorectal adenocarcinoma grade IV LoVo (ATCC® CCL-229™), hepatocellular carcinoma Hep 3b (ATCC® HB-8064™), endometrium adenocarcinoma HEC1A (ATCC® HTB-112™), Ishikawa (99040201; Sigma–Aldrich Sigma, St. Louis, MO, USA), cervical adenocarcinoma cells HeLa (ATCC® CCL-2™), lung epithelial carcinoma A549 (ATCC® CRM-CCL-185™), breast epithelial adenocarcinoma cell positive for estrogen and progesterone receptors MCF7 (ATCC® HTB-22™) and negative for expression of estrogen receptor HCC38 (ATCC® CRL-2314™), acute promyelocytic leukemia HL-60 (ATCC® CCL-240™), skin melanoma WM115 (ATCC® CRL-1676™), and 1 suspension cancer cell line: acute lymphoblastic leukemia NALM6 (purchased from the German Collection of Microorganisms and Cell Cultures). HT29, NALM6, HCC-38 and HL-60 cells were cultured in RPMI 1640 medium (Thermo Fisher Scientific, Waltham, MA, USA) supplemented with 10% fetal bovine serum and antibiotic (gentamicin 25 μg ml^−1) (Gibco, Grand Island, New York, NY, USA). For the remaining tumor cell lines, Dulbecco’s minimal essential medium (DMEM, Lonza, Visp, Switzerland) supplemented with 10% fetal bovine serum and antibiotic instead of RPMI 1640 was used. In addition, Human Microvascular Endothelial Cells (HMEC1), which were obtained from the American Type Culture Collection (Manassas, VA, USA), were used as a model of normal cells. HMEC-1 were cultured in MCDB131 medium (Corning Life Sciences, Corning, NY, USA), supplemented with 10% fetal bovine serum, 10 ng/mL Epidermal Growth Factor (Millipore, Burlington, MA, USA) and 10 mM glutamine (Corning Life Sciences). All cells were grown at 37 °C in humidified atmosphere of 5% CO2 in air. The exponential growth of cells was maintained by regular passaging at 90% confluence three times a week using 0.025% trypsin/EDTA (Gibco, Grand Island, New York, NY, USA).
(§2) The cytotoxicity was tested by a standard MTT [3-(4,5-dimethylthiazol-2-yl)-2,5-diphenyltetrazolium bromide] (Sigma, St. Louis, MO, USA) microplate cell viability assay. The anticancer activity of the investigated compounds was evaluated in vitro on the basis of their ability to inhibit the proliferation of various cancer cells. Exponentially growing cells were seeded a day before the experiment into a 96-well microplate (Nunc, Roskilde, Denmark) at a density up to 6–8 × 10^3 cells/mL (depending on the cell line) and exposed to the test compounds at a wide range of concentrations for 48 h. Subsequently, various concentrations of the studied compounds (10^−7–10^−5 M) freshly prepared in DMSO (final concentration of <0.1% DMSO) and diluted with complete culture medium were added. After 48 h incubation, the cells were immediately subjected to a cell viability assay. At this time point, the number of viable cells in each well was estimated by the MTT test. Briefly, 50 µL (5 mg/mL final concentration) of MTT was added to each microplate well. This procedure was then followed by a three- to four-hour incubation at 37 °C. After incubation, MTT solution was replaced with 100 µL DMSO/well, which solubilized the formazan crystals formed by the dehydrogenases of metabolically active cells. Purple formazan absorbance was measured spectrophotometrically at 570 nm.

[2] = tested on: MCF7; test: MTT cytotoxicity, MCF7; format: cell-based, human; settings: 48 h incubation, read-out: Cytotoxic effect, IC50
Procedure: as §1, §2

[3] = tested on: WM115; test: MTT cytotoxicity, WM115; format: cell-based, human; settings: 48 h incubation, read-out: Cytotoxic effect, IC50
Procedure: as §1, §2

[4] = tested on: SW620; test: MTT cytotoxicity, SW620; format: cell-based, human; settings: 48 h incubation, read-out: Cytotoxic effect, IC50
Procedure: as §1, §2

[5] = tested on: NALM6; test: MTT cytotoxicity, NALM6; format: cell-based, human; settings: 48 h incubation, read-out: Cytotoxic effect, IC50
Procedure: as §1, §2

[6] = tested on: Ishikawa; test: MTT cytotoxicity, Ishikawa; format: cell-based, human; settings: 48 h incubation, read-out: Cytotoxic effect, IC50
Procedure: as §1, §2

[7] = tested on: HCT116; test: MTT cytotoxicity, HCT116; format: cell-based, human; settings: 48 h incubation, read-out: Cytotoxic effect, IC50
Procedure: (§3) Cytotoxicity was evaluated against fifteen adherent human cancer cell lines using the MTT test: colorectal adenocarcinoma cells Caco2 (ATCC® HTB-37™), colorectal adenocarcinoma cells HT29 (ATCC® HTB-38™), colon colorectal carcinoma HCT116 (ATCC® CCL-247™), colon adenocarcinoma COLO205 (ATCC® CCL-222™), colorectal adenocarcinoma SW620 (ATCC® CCL-227™), colorectal adenocarcinoma grade IV LoVo (ATCC® CCL-229™), hepatocellular carcinoma Hep 3b (ATCC® HB-8064™), endometrium adenocarcinoma HEC1A (ATCC® HTB-112™), Ishikawa (99040201; Sigma–Aldrich Sigma, St. Louis, MO, USA), cervical adenocarcinoma cells HeLa (ATCC® CCL-2™), lung epithelial carcinoma A549 (ATCC® CRM-CCL-185™), breast epithelial adenocarcinoma cell positive for estrogen and progesterone receptors MCF7 (ATCC® HTB-22™) and negative for expression of estrogen receptor HCC38 (ATCC® CRL-2314™), acute promyelocytic leukemia HL-60 (ATCC® CCL-240™), skin melanoma WM115 (ATCC® CRL-1676™), and 1 suspension cancer cell line: acute lymphoblastic leukemia NALM6 (purchased from the German Collection of Microorganisms and Cell Cultures). […]
(§4) The cytotoxicity was tested by a standard MTT [3-(4,5-dimethylthiazol-2-yl)-2,5-diphenyltetrazolium bromide] […] The anticancer activity of the investigated compounds was evaluated in vitro on the basis of their ability to inhibit the proliferation of various cancer cells. […]

[8] = tested on: Colo205; test: MTT cytotoxicity, Colo205; format: cell-based, human; settings: 48 h incubation, read-out: Cytotoxic effect, IC50
Procedure: as §1, §2

[9] = tested on: Hep 3b; test: MTT cytotoxicity, Hep 3b; format: cell-based, human; settings: 48 h incubation, read-out: Cytotoxic effect, IC50
Procedure: as §1, §2

[10] = tested on: HT29; test: MTT cytotoxicity, HT29; format: cell-based, human; settings: 48 h incubation, read-out: Cytotoxic effect, IC50
Procedure: as §1, §2

[11] = tested on: PARP1; test: Cleaved PARP level (ELISA), COLO205 cells; format: cell-based, human; settings: COLO205, 24 h at IC50 concentration
Procedure: (§5) Cells (1 × 10^6) were seeded in 35 mm dishes and cultured for 24 h in the appropriate medium until they reached log phase growth. […] After incubation, the medium was removed, the cells were washed with PBS solution and trypsinized. The harvested cell pellet was lysed in RIPA buffer (50 mM Tris-HCL, pH 8.0, with 150 mM sodium chloride, 1.0% Igepal CA-630 (NP-40), 0.5% sodium deoxychlorate, and 0.1% sodium dodecyl sulfate) with protease inhibitor (phenylmethylsulfonyl fluoride) (Sigma-Aldrich Sigma, St. Louis, MO, USA). The level of cleaved PARP was estimated using the PARP Cleaved [214/215] ELISA kit (Invitrogen, Waltham, MA, USA) according to the protocol described in the manufacturer’s instructions.

[12] = tested on: A549; test: MTT cytotoxicity, A549; format: cell-based, human; settings: 48 h incubation, read-out: Cytotoxic effect, IC50
Procedure: as §1, §2

[13] = tested on: human microvascular endothelial cell line HMEC1; test: MTT cytotoxicity, normal endothelial cells HMEC1; format: cell-based; settings: for IC50: HMEC1 normal endothelial cells, 48 h incubation, read-out: Cytotoxic effect, IC50; for IC50 for HMEC-1 higher than for cancer cells (selectivity): HMEC-1 vs cancer cells
Procedure: as §1, §2

[14] = tested on: Caco2; test: MTT cytotoxicity, Caco2; format: cell-based, human; settings: 48 h incubation, read-out: Cytotoxic effect, IC50
Procedure: as §1, §2

[15] = tested on: HL60; test: MTT cytotoxicity, HL60; format: cell-based, human; settings: 48 h incubation, read-out: Cytotoxic effect, IC50
Procedure: as §1, §2

[16] = tested on: Colo205; test: RNS generation, DAF-FM probe, COLO205; format: cell-based, human; settings: COLO205, 24 h at IC50 concentration
[17] = tested on: LoVo; test: MTT cytotoxicity, LoVo; format: cell-based, human; settings: 48 h incubation, read-out: Cytotoxic effect, IC50
Procedure: as §1, §2

[18] = tested on: Hela; test: MTT cytotoxicity, Hela; format: cell-based, human; settings: 48 h incubation, read-out: Cytotoxic effect, IC50
Procedure: as §1, §2

[19] = tested on: HCC38; test: MTT cytotoxicity, HCC38; format: cell-based, human; settings: 48 h incubation, read-out: Cytotoxic effect, IC50
Procedure: as §1, §2

[20] = Lipophilicity by RP-TLC; format: physicochemical; design: key: RM = log(1/Rf − 1), Rf = a/b; settings: eluent AcCN: H2O at 30–70% v/v, 22 °C
Procedure: All the experimental solutions of standard substances (0.1 mg/mL) were prepared by dissolving ligands (1a–1d) or ruthenium complexes (2a/3a–2d/3d) in ethanol. Commercially-available octadecyl-modified silica aluminum sheets (20 × 20 cm) were cut into 5 × 10 cm plates. The plates were manually spotted with 1.0 μL of freshly prepared solutions using automatic pipets, 5 mm from each edge. The chromatograms for all compounds (1a/2a/3a–1d/2d/3d) were developed using a horizontal developing chamber and the solvent migration distance was about 4.5 cm. The plates were visually inspected under UV light at 254 nm. Each zone was clearly marked and its distance was manually measured. The RP-TLC analyses of lipophilicity were performed at ambient temperature (22 °C). In this experiment, all measurements were performed in triplicate and the obtained results were used in further calculations. The acetonitrile and water mixtures for ligands 1a–1d and arene–ruthenium(II) complexes 2a/3a–2d/3d were used as mobile phases, with […] content increasing in the range of 30–70% v/v, at 5% intervals. Values of the chromatographic retention coefficient Rf (as shown Formula (1)) and RM (as shown Formula (2)), based on received chromatograms, were calculated and converted as follows:(1) Rf=a/b (2) RM=log1/Rf−1

[21] = tested on: human cancer cell lines; test: MTT cytotoxicity, summary statements over the cancer cell line panel; format: cell-based; settings: read-out: IC50 for seven (2c) and six (3c) cancer cell lines
Procedure: as §3, §4

[22] = pH dependent stability of the complexes (UV–Vis); format: physicochemical; settings: 24 h and 48 h
Procedure: The stability measurements were performed on a UV 1800 Shimadzu spectrophotometer (Kyoto, Japan) at room temperature. The complexes 2d and 3d were tested for the stabilities in buffer Na2HPO4 (pH 4 and 8). UV–Vis spectra were recorded hourly for 48 h at 22 °C. The spectra were recorded in the range of 200–800 nm over a time course of 0, 24, and 48 h.

[23] = tested on: PARP1; test: Cleaved PARP level (ELISA), WM115 cells; format: cell-based, human; settings: WM115, 24 h at IC50 concentration
Procedure: as §5

Structure (SMILES) | IC50 [1] [µM] | IC50 [2] [µM] | IC50 [3] [µM] | IC50 [4] [µM] | IC50 [5] [µM] | IC50 [6] [µM] | IC50 [8] [µM] | IC50 [9] [µM] | IC50 [10] [µM] | IC50 [12] [µM] | IC50 [13] [µM] | IC50 for HMEC-1 higher than for cancer cells (selectivity) [13] | IC50 [14] [µM] | IC50 [15] [µM] | IC50 [17] [µM] | IC50 [18] [µM] | IC50 [19] [µM] | Lipophilicity, RM [20] | further results
Cl.[Cl-].[Cl-].[Cl-].[Ru+3].c1c[nH]cn1.c1c[nH]cn1 [NAMI-A, reference compound] | > 200 | 14.1 ± 1.5 | > 200 | > 200 | > 200 | > 200 | > 200 | > 200 | > 200 |  |  |  |  |  |  |  |  |  | IC50 [7]: > 200 µM
Cc1ccc(C(C)C)cc1.F[P-](F)(F)(F)(F)F.NC(=S)n1nc(-c2ccccc2)cc1O.[Cl-].[Ru+2] [3c] | 39.9 ± 4.1 | 30.4 ± 2.1 | 18.7 ± 1.7 | 90.1 ± 1.7 | 19.8 ± 1.8 | 124.3 ± 0.9 | 26.7 ± 2.1 | 52.1 ± 3.4 | 128 ± 4.2 | 191 ± 4.3 | 164 ± 3.1 | 3–5 times | 172 ± 8.2 | 70.4 ± 6 | 32.4 ± 1.8 | 78.8 ± 1.1 | 131 ± 2.2 | 2.61 | increase in level of PARP1 degradation vs. control [11]: approximately 85%; increase in nitrogen peroxide (RNS, DAF-FM probe) vs. control [16]: ~25%; IC50 [21]: < 50 µM
Cc1cc(O)n(C(N)=S)n1.Cc1ccc(C(C)C)cc1.[Cl-].[Cl][Ru+] [2d] | 67.8 ± 6.1 | > 200 | 8 ± 0.9 | > 200 | > 200 | 100 ± 6.7 | > 200 | > 200 | 168 ± 7.5 | > 200 | 163 ± 5.9 | 3–5 times | > 200 | > 200 | > 200 | 111 ± 1.7 | > 200 | 1.64 | Stability, UV–Vis absorption maxima ([22]; pH 4 buffer): did not change; Stability, UV–Vis absorption maxima ([22]; pH 8 buffer): loss absorption; increase in level of PARP1 degradation compared to controls [23]: approximately 115%

Source: article PMC10180065, “Mechanistic Studies of Arene–Ruthenium(II) Complexes with Carbothioamidopyrazoles as Alternative Cancer Drugs” (Molecules, 2023)
